According to patent US9718819B2 (Merck Sharp & Dohme Corp., priority 2012, dated 2017):

Key:
[1] = Determination of PK parameters in dog after intravenous bolus; assay type: in vivo, Male beagle dogs; conditions: male beagle dog, plasma, 50% DMSO in PEG400, read-out: Dog t1/2 (terminal half-life) (converted)
Procedure: Determination of PK Parameters Male beagle dogs (weight 9-13 kg) were fasted overnight and housed individually. Water was provided ad lib throughout the study. Food was allowed approximately 4 hr post dose. […] The formulations were given intravenous as a bolus injection into the cephalic vein. The vein used for the dosing will not be used for the blood sample collection for the first 4 hr post-dose). […] EDTA was used as anticoagulant and approximately 0.5 mL aliquots of blood samples were collected at each time point. […] Test compound concentration in dog plasma was determined using a LC/MS/MS method. Typically the LC/MS/MS system consisted of an ACQUITY UPLC system with autosampler system refrigerated at 4° C. during analysis, and an API 4000 mass spectrometer. […] The mobile phase consisting of a solvent A (0.1% formic acid in water/acetonitrile (95/5)) and solvent B (0.1% formic acid in acetonitrile/water (95/5)) was delivered at a flow rate of 600 μL/min. […] Mass spectrometric detection of the analytes is accomplished using either an ESI or APCI interface operated in the positive or negative ionization mode. Analyte response is measured by multiple reaction monitoring (MRM) of transitions unique to each compound […]

[2] = molecular target: HIV-1 RT wild-type enzyme (Human immunodeficiency virus type 1 group M subtype B (isolate HXB2) (HIV-1), UniProt P04585); experiment: HIV-1 reverse transcriptase inhibitory activity (RT polymerase assay); assay type: biochemical; conditions: HIV-1 RT wild-type enzyme 83 pM; RNA-dependent DNA polymerase activity; read-out: IC50
In short: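 Enzyme and compound were preincubated 30 min at room temperature, then RNA/DNA hybrid (16.6 nM final; HCV-derived RNA, biotinylated primer) plus 2 μM dNTPs and 66.6 nM Ru-dUTP added, 90 min at 37 °C. Avidin capture and ECL counting; percent inhibition relative to DMSO (0%) and 1 μM efavirenz (100%), four-parameter IC50 fit.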

Row | SMILES | half-life [1] | IC50 [2]
1 | N#Cc1cc(Cl)cc(Oc2c(C(F)(F)F)ncn(Cc3cc(C4CC4)n[nH]c3=O)c2=O)c1 [Example 117, 3-chloro-5-((1-((6-cyclopropyl-3-oxo-2,3-dihydropyridazin-4-yl)methyl)-6-oxo-4-(trifluoromethyl)-1,6-dihydropyrimidin-5-yl)oxy)benzonitrile] | 30 h | 6 nM
2 | N#Cc1cc(Cl)cc(Oc2c(C(F)(F)F)ncn(Cc3cc(C(F)F)n[nH]c3=O)c2=O)c1 [Example 128, 3-chloro-5-((1-((6-(difluoromethyl)-3-oxo-2,3-dihydropyridazin-4-yl)methyl)-6-oxo-4-(trifluoromethyl)-1,6-dihydropyrimidin-5-yl)oxy)benzonitrile] | 81 h | 4 nM
3 | CC(F)(F)c1cc(Cn2cnc(C(F)(F)F)c(Oc3cc(Cl)cc(C#N)c3)c2=O)c(=O)[nH]n1 [Example 129, 3-chloro-5-((1-((6-(1,1-difluoroethyl)-3-oxo-2,3-dihydropyridazin-4-yl)methyl)-6-oxo-4-(trifluoromethyl)-1,6-dihydropyrimidin-5-yl)oxy)benzonitrile] | 126 h | 6 nM
4 | CC(C)(C)c1ncc(Cn2cnc(C(F)(F)F)c(Oc3cc(Cl)cc(C#N)c3)c2=O)c(=O)[nH]1 [Example 130, 3-((1-((2-(tert-butyl)-6-oxo-1,6-dihydropyrimidin-5-yl)methyl)-6-oxo-4-(trifluoromethyl)-1,6-dihydropyrimidin-5-yl)oxy)-5-chlorobenzonitrile] | 24 h | 12 nM
